Experimental findings from BindingDB's records for doi:10.1073/pnas.92.19.8734 (Massachusetts General Hospital, 1995) are described below.

The structures appear in SMILES notation.

Assay [1] concerns the target T1, Melatonin receptor type 1B (Homo sapiens, UniProt P49286).
T1 sequence (P49286 whole entry): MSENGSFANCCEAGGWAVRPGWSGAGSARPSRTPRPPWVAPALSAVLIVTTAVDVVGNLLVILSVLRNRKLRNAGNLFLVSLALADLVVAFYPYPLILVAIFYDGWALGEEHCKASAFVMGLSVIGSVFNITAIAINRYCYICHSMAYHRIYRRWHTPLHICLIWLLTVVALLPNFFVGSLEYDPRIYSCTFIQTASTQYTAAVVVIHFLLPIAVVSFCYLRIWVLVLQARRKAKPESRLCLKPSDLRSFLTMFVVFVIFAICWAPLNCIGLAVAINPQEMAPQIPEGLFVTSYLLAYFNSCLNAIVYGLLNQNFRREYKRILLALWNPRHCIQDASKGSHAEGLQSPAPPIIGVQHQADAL

In assay [2] the target is Melatonin receptor type 1A (Homo sapiens, UniProt P48039).
Chain of Melatonin receptor type 1A (P48039 whole entry): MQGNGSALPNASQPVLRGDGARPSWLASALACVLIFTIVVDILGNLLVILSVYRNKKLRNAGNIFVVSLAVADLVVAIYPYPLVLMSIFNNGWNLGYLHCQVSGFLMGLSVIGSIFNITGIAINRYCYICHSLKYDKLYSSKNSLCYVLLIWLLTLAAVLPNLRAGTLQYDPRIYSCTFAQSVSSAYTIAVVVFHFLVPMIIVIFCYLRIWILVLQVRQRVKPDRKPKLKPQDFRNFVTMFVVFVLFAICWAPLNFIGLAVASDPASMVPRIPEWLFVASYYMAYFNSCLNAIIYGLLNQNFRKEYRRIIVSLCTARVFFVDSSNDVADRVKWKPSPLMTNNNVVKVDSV

On to `CC(=O)n1cc(CCN)c2cc(O)ccc21` [NSC_260803], for which the Ki (commonly the equilibrium dissociation constant of an inhibitor or competing ligand from its target) is 595 nM in assay [1] and 986 nM in assay [2].
`NCCc1c[nH]c2ccc(O)cc12` [[3H]-5-HT] came in with a Ki in assay [1] of more than 10000 nM.
In the case of `COc1cc2nc(N3CCN(C(=O)c4ccco4)CC3)nc(N)c2cc1OC` [[3H]-Minipress], the inhibitory constant (Ki) in assay [1] and in assay [2] was more than 10000 nM in each case.
